{
  "source": "paper PMC11056991",
  "about": "“Promising Anticancer Prodrugs Based on Pt(IV) Complexes with Bis-organosilane Ligands in Axial Positions” (Journal of Medicinal Chemistry, 2024)",
  "key": {"[1]": {"experiment": "195Pt NMR reduction kinetics with ascorbic acid", "format": "physicochemical", "conditions": "AsA 4:1 excess, DMSO/D2O (4:1), 37 °C, 2, 6, 24 h", "description": "(§1) AsA presents an intracellular concentration of 1 mM, whereas the GSH concentration is 2 mM.[38] This reactivity was monitored by ^195Pt NMR at different times. Thus, by analyzing the different regions where the signals of Pt(II)/Pt(IV) species appear, it is possible to identify and assign the different compounds formed during the reaction. In most cases, the regions where the Pt(II) and Pt(IV) signals appear are separated by more than 3000 ppm.[33]\nWe first studied the reduction of the complexes against AsA, monitoring the reaction in both the Pt(IV) and Pt(II) region at 2, 6, and 24 h. In both cases, we used a mixture of DMSO/D2O (4:1) to reach the solubilization of the complexes and the AsA. In the Pt(IV)-biSi-1 reduction experiment, during the first hour, only the signal at 1210 ppm appeared in the Pt(IV) region (Figure S13A), which corresponds to the original complex, and no signal was detected in the Pt(II) region.\nEach solution was then slowly added to 100 μL of a solution of the corresponding reducing agent (AsA or GSH in an excess of 4:1 against each complex) in D2O at 37 °C. After that, 100 μL of DMSO-d6 was added carefully to each mixture, reaching a final concentration of […] (DMSO-d6/D2O). All of these mixtures were performed using a thermoshaker. Each sample was monitored by ^195Pt NMR at 2, 6, and 24 h."}, "[2]": {"experiment": "195Pt NMR reduction kinetics with glutathione", "format": "physicochemical", "conditions": "GSH 4:1 excess, DMSO/D2O (4:1), 37 °C, 2, 6, 24 h", "description": "as §1\nThe reactivity of both complexes toward the reducing agent GSH was also studied using the DMSO/D2O (4:1) mixture. […] In the Pt(II) region, two signals appeared after 24 h at −2728 and −3405 ppm (Figure 2G). The first value is consistent with the cis-PtN2SX fraction,[41],[42] meaning that this species, once reduced to its Pt(II) homologue, coordinates with GSH by displacing a chloride ligand. The second signal corresponds to another Pt(II) moiety with more than one ligand containing sulfur atoms. […]\nEach solution was then slowly added to 100 μL of a solution of the corresponding reducing agent (AsA or GSH in an excess of 4:1 against each complex) in D2O at 37 °C. […] Each sample was monitored by ^195Pt NMR at 2, 6, and 24 h."}},
  "data": [
    {"molecule": "CC(C)N.CC(C)N.CCO[Si](CCCNC(=O)[O][Pt]([Cl])([Cl])[O]C(=O)NCCC[Si](OCC)(OCC)OCC)(OCC)OCC", "note": "[Pt(IV)-biSi-2, cis-Dichloro(diisopropylamine)-trans-[3-(triethoxysilyl)propylcarbamate]platinum(IV)]", "values": [
      {"measurement": "Reduction of the Pt(IV) complex by AsA (Pt(IV) signal in 195Pt NMR)", "setting": "[1]", "result": "no signals were observed in the Pt(IV) region after reaction for 2 h"},
      {"measurement": "Reduction of the Pt(IV) complex by GSH (Pt(IV) signal in 195Pt NMR)", "setting": "[2]", "result": "practically disappeared after 24 h"}
    ]}
  ]
}
